From patent US20050118249A1, “Lipid carrier compositions and methods for improved drug retention” (priority 2001, published 2005)
Values belong to the compound of their own block, whether it stands above or below them.

What was measured:
[1] = Retention of vincristine in liposomes in blood after intravenous injection; type: in vivo, Balb/c mice; conditions: i.v., 1, 4, 24 h
Method: Solutions of lipids in chloroform were combined to give a 95:5 molar ratio of DSPC/DSPE-PEG2000 or a 55:45 molar ratio of DSPC/Cholesterol, with trace amounts of ^14C-cholesteryl hexadecyl ether (^14C-CHE). The resulting mixtures were dried under a stream of nitrogen gas and placed in a vacuum pump overnight. The samples were hydrated at 70° C. with either 300 mM citrate, pH 4.0 (about 600 milliosmoles/kg (mOsm/kg)) or 150 mM citrate buffer, pH 4.0 (about 300 mOsm/kg) and passed through an extrusion apparatus (Northern Lipids Inc., Vancouver, BC) ten times with two 100 nm pore size polycarbonate filters at 70° C. Average liposome size was determined by quasi-elastic light scattering using a NICOMP 370 submicron particle sizer operating at a wavelength of 632.8 nm. The resulting liposomes were applied to a Sephadex G50 column equilibrated with HBS (20 mM HEPES, 150 mM NaCl, about 320 mOsm/kg), pH 7.45 to exchange the external liposomal buffer. […]
Vincristine-containing liposomes were administered intravenously to Balb/c mice at a lipid dose of 165 μmoles/kg in a final volume of 200 μL immediately after preparation (within 1-2 hrs). […] Lipid and vincristine levels were quantified by liquid scintillation counting and the values were reported as the mean ± standard deviation (SD).

[2] = Drug-to-lipid ratio of irinotecan before and after freezing of dual-loaded DSPC/DSPG liposomes; type: physicochemical; conditions: 0-20 mole % cholesterol, with FUDR, 250 mM CuSO4 inside (<500 mOsm/kg), frozen at -20° C. and -70° C. for 24 hours
Method: FUDR and irinotecan were loaded into cholesterol-free liposomes containing a low osmolarity internal solution and drug retention and liposome size were measured prior to and after freezing. DSPC/DSPG liposomes containing 0-20 mole % cholesterol, 20 mole % DSPG and passively entrapped FUDR were prepared as described previously and hydrated in 250 mM CuSO4 (<500 mOsm/kg). The MLVs were extruded at 70° C. as detailed above and buffered exchanged into saline and then into 300 mM sucrose, 20 mM Hepes, 30 mM EDTA (SHE), pH 7.4 using a hand-held tangential flow column. The sample was then further exchanged into 300 mM sucrose, 20 mM Hepes, pH 7.4 to remove residual EDTA. The liposomes were subsequently loaded with irinotecan at a drug-to-lipid mole ratio of 0.1:1 by mixing the two solutions at 50° C. for five minutes. The dual-loaded liposomes were then buffered exchanged into HBS using tangential flow to remove any unencapsulated drug.
The influence of freezing on liposome stability was determined by freezing the liposomes at either −20° C. or −70° C. for 24 hours. […] Lipid and FUDR levels were quantified using liquid scintillation and absorbance at 370 nm was used to determine irinotecan concentration. Particle sizing of the liposomes was also determined prior to and after freezing using quasi-elastic light scattering.

[3] = Retention of FUDR in DSPC/DSPG/Chol liposomes in blood after intravenous injection; type: in vivo, Balb/c mice; conditions: DSPC/DSPG/Chol (70:20:10) liposomes; intraliposomal solution of less than 500 mOsm/kg; i.v., 1, 4, 24 h
Method: DSPC/DSPG/Chol (70:20:10 mole ratio) were prepared following the methods of Example 1 except that lipid films were hydrated in either saline or Cu(II)gluconate, pH 7.4 containing 25 mg/mL FUDR at 70° C. Cu(II)gluconate was added at either 100 or 200 mM (321 and 676 mOsm/kg, respectively) and the pH was adjusted to 7.4 by addition of triethanolamine (TEA). Trace amounts of 14C-CHE and ^3H-FUDR were used as lipid and drug markers, respectively. The resulting MLVs were extruded at 75° C. through two stacked 100 nm pore size filters for a total of ten passes. Liposomes were buffer exchanged into HBS, pH 7.4 using a hand-held tangential flow column. A total lipid dose of 3.3 μmoles (165 μmoles/kg) was administered to female Balb/c mice in a final volume of 200 μL immediately after preparation (within 1-2 hrs). Blood samples were removed by cardiac puncture 1, 4 and 24-hours post administration (3 mice per time point). Lipid and FUDR levels were determined using liquid scintillation counting and values were reported as the mean±SD.

[4] = Retention of idarubicin in liposomes with varying internal citrate after intravenous injection; type: in vivo, Balb/c mice; conditions: DSPC/DSPE-PEG2000 (95:5) liposomes; 300 mM citrate (>500 mOsm/kg) in relation to 100 and 150 mM (<500 mOsm/kg); i.v., 0.5-24 h
Method: DSPC/DSPE-PEG2000 (95:5 mole ratio) liposomes prepared with 100, 150 and 300 mM citrate were also loaded with idarubicin at a drug to lipid mole ratio of 0.25:1. Loading was facilitated by incubating the drug and liposomes at 37° C. for 60 minutes. Liposomes were administered to Balb/c mice as indicated and blood samples were removed by cardiac puncture at 0.5, 1, 2, 4 and 24-hours post administration (3 mice per time point). Idarubicin concentration was quantitated using fluorescence intensity at 485 nm as the excitation wavelength and 535 nm as an emission wavelength and using an absorbance wavelength of 482 nm.

[5] = Retention of daunorubicin in liposomes in blood after intravenous injection (time course); type: in vivo, Balb/c mice; conditions: DSPC/DSPE-PEG2000 (95:5) liposomes; internal citrate 600 mOsm/kg (300 mM) in relation to 300 mOsm/kg (150 mM); i.v., 1, 4, 24 h
Method: DSPC/DSPE-PEG2000 liposomes (95:5 mole ratio) containing 150 or 300 mM citrate (300 or 600 mOsm/kg), pH 4 and DSPC/Cholesterol (55:45 mole ratio) and DSPC/Cholesterol/DSPE-PEG2000 (50:45:5 mole ratio) liposomes containing 150 mM citrate, pH 4 were prepared as described in Example 1. Liposomes were subsequently combined with daunorubicin at a 0.2:1 drug to lipid mole ratio. To facilitate drug loading, the mixtures were incubated at 40° C. for 60 minutes.
The resulting daunorubicin-containing liposomes were administered to Balb/c female mice at a lipid dose of 165 μmoles/kg as detailed above. Blood samples were removed at 1, 4 and 24 hours post administration by cardiac puncture (3 mice per time point). Lipid levels were determined by liquid scintillation counting. Daunorubicin was extracted from plasma samples and quantified as follows: a defined volume of plasma was adjusted to 200 μL with distilled water followed by addition of 600 μL of distilled water, 100 μL of 10% SDS and 100 μL of 10 mM H2SO4. This solution was mixed and 2 mLs of 1:1 isopropanol/chloroform was added followed by vortexing. […] The bottom organic layer was removed and assayed for fluorescence intensity at 500 nm as the excitation wavelength (2.5 nm bandpass) and 550 nm as an emission wavelength (10 nm bandpass) and using an absorbance wavelength of 480 nm.

[6] = Retention of daunorubicin in liposomes with varying internal citrate, 4 hours after injection; type: in vivo, Balb/c mice; conditions: DSPC/DSPE-PEG2000 (95:5) liposomes; 100, 150 and 200 mM internal citrate (about 200, 300, 400 mOsm/kg); 4 hours after i.v. injection
Method: DSPC/DSPE-PEG2000 (95:5 mole ratio) liposomes containing the non-exchangeable marker 3H-CHE were prepared as described in Example 1, except that lipid films were hydrated with 100, 150, 200, 250 or 300 mM citrate, pH 4.0 (corresponding to osmolarity levels of about 200, 300, 400, 500 or 600 mOsm/kg, respectively).
Daunorubicin was loaded at a 0.2:1 drug-to-lipid mole ratio with the methods detailed above into each of the five liposomal formulations. The resulting liposomes were administered to female Balb/c mice at a lipid dose of 165 μmoles/kg in a final volume of 200 μL immediately after preparation (within 1-2 hrs). Blood samples were removed 4 hours after administration by cardiac puncture (3 mice per time point). Lipid and daunorubicin levels were determined as described previously and percent initial drug-to-lipid ratio was reported as the mean±SD.

retention of vincristine (percent initial vincristine-to-lipid weight ratio in the blood) ([1]; DSPC/DSPE-PEG2000 (95:5 mole ratio) liposomes, internal citrate 300 mOsm/kg (150 mM) compared to 600 mOsm/kg (300 mM)): significantly enhanced
SMILES: CC[C@]1(O)C[C@H]2CN(CCc3c([nH]c4ccccc34)[C@@](C(=O)OC)(c3cc4c(cc3OC)N(C=O)[C@H]3[C@@](O)(C(=O)OC)[C@H](OC(C)=O)[C@]5(CC)C=CCN6CC[C@]43[C@@H]65)C2)C1 [vincristine]
retention of vincristine (percent initial vincristine-to-lipid weight ratio in the blood) ([1]; DSPC/cholesterol (55:45 mole ratio) liposomes, 150 mM vs 300 mM internal citrate): independent of the osmolarity of the intraliposomal solution

retention of irinotecan after freezing (drug-to-lipid ratio) [2]: effectively retained
SMILES: CCc1c2c(nc3ccc(OC(=O)N4CCC(N5CCCCC5)CC4)cc13)-c1cc3c(c(=O)n1C2)COC(=O)[C@]3(O)CC [irinotecan]

idarubicin retention (idarubicin-to-lipid mole ratio in the blood) [4]: significantly decreased
SMILES: CC(=O)[C@]1(O)Cc2c(O)c3c(c(O)c2[C@@H](O[C@H]2C[C@H](N)[C@H](O)[C@H](C)O2)C1)C(=O)c1ccccc1C3=O [idarubicin]

The next lines start with the compound.

SMILES: O=c1[nH]c(=O)n([C@H]2C[C@H](O)[C@@H](CO)O2)cc1F [FUDR, Floxuridine]
FUDR retention (FUDR levels remaining in the blood) [3]: optimally retained

SMILES: COc1cccc2c1C(=O)c1c(O)c3c(c(O)c1C2=O)C[C@@](O)(C(C)=O)C[C@@H]3O[C@H]1C[C@H](N)[C@H](O)[C@H](C)O1 [daunorubicin]
daunorubicin retention (percent initial daunorubicin-to-lipid ratio remaining in the blood) [5]: compromised
retention of daunorubicin (percent initial daunorubicin-to-lipid ratio remaining in the blood) [6]: optimal retention
